The test system of one data set is MC3T3-E1 cells. In words: Bioactivity of released PTH(1-34): intracellular cAMP. The data set is classed as cell-based. As to conditions: PTH(1-34) released from microspheres at 1 and 3 days; 6 hrs incubation. The protocol: Activity of controlled released PTH(1-34) was determined by measuring cAMP contents in cells treated with released PTH(1-34). For these experiments, the MC3T3-E1 was cultured in α-MEM supplemented with 10% fetal bovine serum and […] ascorbic acid. The cells were seeded onto 24-well plates at a density of 50,000 cells/well. After 6 hrs of incubation with released PTH (1-34) from microspheres, the cells were lysed directly in the medium by adding 0.1 N HCl and 0.5 mM isobutylmethylxanthine to protect the produced cAMP. Intracellular cAMP was measured using a commercially available ELISA kit (Endogen/Pierce, Rockford, Ill.) following the manufacturer's instructions.

For data set [1] the following is noted: pulmonary route, cited from earlier work.
The conditions of data set [2]: oral administration, in comparison to subcutaneous administration; cited from earlier work.
In data set [3] the test system is papain induced osteoarthritis. The conditions noted are these: injection once in three days for 5 weeks; cited from earlier work.
For data set [4], the system named is papain-induced osteoarthritis, articular cartilage. As to the kind of experiment: Papain-induced osteoarthritis, histology and immunohistochemistry of articular cartilage. Format: in vivo, rat. The protocol:
The animal experiments were approved by the Animal Care and Use Committee of Kaohsiung Medical University. Fifty-four 12-week-old male Sprague-Dawley rats (250-300 gm) were purchased from BioLASCO Taiwan and housed under standard laboratory conditions (temperature 24° C., 12-hour light-dark cycle) with food and water ad libitum. The animals were acclimatized to the laboratory environment for 1 week before the experiments.
Each left knee, which served as the contralateral control joint, received the vehicle without PTH treatment or OA-induction. The right knees were the study joints. Rats were divided into five groups: Non-OA+PTH [PTH(1-34) treatment without OA-induction] (n=6), Non-OA+PTH/PLGA [PTH/PLGA microspheres treatment without OA-induction] (n=6), OA [OA-induction without PTH(1-34) treatment] (n=6), OA+PTH [PTH(1-34) treatment followed by OA-induction] (n=6), and OA+PTH/PLGA [PTH/PLGA microspheres treatment followed by OA-induction] (n=6). OA was induced in the right knees of rats in the OA and OA+PTH groups with intra-articular injections of 20 μl of 4% papain solution and 20 μl of 0.03 M cystein. The injections were given with a 26-gauge needle via the patellar tendon on days 1, 4, and 7 of the experiment (13). In the OA+PTH group, after OA-induction, the right knees were injected intra-articularly with 40 μl of 10 nM PTH(1-34) every three days until sacrifice. In the PTH group, the same PTH(1-34) treatment was performed but without OA-induction. In the OA+PTH/PLGA group, after OA-induction, the right knees were injected intra-articularly with 0.4 mg of PTH/PLGA microspheres at 1st and 15th day. The rats were sacrificed with an overdose of CO2-inhaled at the same time point at 5 weeks.
After sacrifice, the knees of each rat were harvested, and the tibia plateaus with articular cartilage were collected and fixed with 10% neutral buffered formalin prior to histological preparation. The samples were then decalcified in 10% formic acid/PBS. The decalcified tibia articular samples were paraffin embedded, and 5 μm microsections in the coronary plane were prepared. GAG was stained with Safranin-O-Fast-Green (1% Safranin-O counter-stained with 0.75% hematoxylin and then 1% fast green) (Sigma, St. Louis, Mo.). Localized type II Collagen and type X collagen were immuno-stained.
GAG was stained red by Safarinin-O, and the total and red-stained areas in the articular cartilage of each proximal tibia were measured using the Image-Pro plus 5.0 software (FIG. 6C) (Media Cybernetics Inc. MD, USA). The ratio of red stained area to total area (red/total) in each group was calculated.
The tibia articular sections were re-hydrated, and the endogenous peroxidase in tissues was blocked with 3% hydrogen peroxide. Samples were digested by enzymes for epitope retrieval before incubation with primary antibodies. The method for enzyme digestion was modified from a previous report (20). The optimal condition for the enzyme digestion for type II collagen immuno-staining was a mixture of 2.5% hyluronidase and 1 mg/ml pronase in PBS (pH 7.4) (Sigma, St. Louis, Mo.) at 37° C. for 1 hour. For type X collagen immuno-staining the optimal condition was 0.1 U/ml chondroitinase ABC (Sigma, St. Louis, Mo.) for 1 hour and pepsin 1 mg/ml in tris-HCl (pH 3.0) at 37° C. for 15 minutes. […]

[5] abbreviates: Non-OA study joints (no OA-induction).
[6] abbreviates: OA-induced study joints, intra-articular, 5 weeks.

The values that follow come from patent publication US8865220B2, “Method for controlled release of parathyroid hormone from encapsulated poly(lactic-glycolic)acid microspheres” (Kaohsiung Medical University, priority 2010, dated 2014).

Molecules are shown by their SMILES. Several values for one entry are separate records, joined by “and”; a condition that tells them apart may be missing. Identical values can stand only once. Like-named read-outs stand apart in the source and are kept apart here.

Turning to `CC[C@H](C)[C@H](NC(=O)[C@H](CCC(=O)O)NC(=O)[C@H](CO)NC(=O)[C@@H](NC(=O)[C@@H](N)CO)C(C)C)C(=O)N[C@@H](CCC(N)=O)C(=O)N[C@@H](CC(C)C)C(=O)N[C@@H](CCSC)C(=O)N[C@@H](Cc1cnc[nH]1)C(=O)N[C@@H](CC(N)=O)C(=O)N[C@@H](CC(C)C)C(=O)NCC(=O)N[C@@H](CCCCN)C(=O)N[C@@H](Cc1cnc[nH]1)C(=O)N[C@@H](CC(C)C)C(=O)N[C@@H](CC(N)=O)C(=O)N[C@@H](CO)C(=O)N[C@@H](CCSC)C(=O)N[C@@H](CCC(=O)O)C(=O)N[C@@H](CCCN=C(N)N)C(=O)N[C@H](C(=O)N[C@@H](CCC(=O)O)C(=O)N[C@@H](Cc1c[nH]c2ccccc12)C(=O)N[C@@H](CC(C)C)C(=O)N[C@@H](CCCN=C(N)N)C(=O)N[C@@H](CCCCN)C(=O)N[C@@H](CCCCN)C(=O)N[C@@H](CC(C)C)C(=O)N[C@@H](CCC(N)=O)C(=O)N[C@@H](CC(=O)O)C(=O)N[C@H](C(=O)N[C@@H](Cc1cnc[nH]1)C(=O)N[C@@H](CC(N)=O)C(=O)N[C@@H](Cc1ccccc1)C(=O)O)C(C)C)C(C)C` [PTH(1-34)], in the data set with MC3T3-E1 cells, the cAMP production entry was “increased production of cAMP”. For the same molecule, the bioavailability (in general, dose-corrected exposure relative to a reference, in per cent) in data set [1] (inhalation of dry powders) is 34%; in data set [1] (intratracheal instillation), 40%; in data set [2], 5% and 2.1%. In data set [3], the effective dose is recorded as 10^−8 M. For the same molecule, the “Safranin O-stained area to total area (red:total, GAG) vs contralateral control” value is “not significantly different” in data set [4] (setting [5]) and “not significantly different from the contralateral control cartilage” in data set [4] (setting [6]). The “type II collagen stained area to total area vs contralateral control” value in data set [4] (setting [5]) is on record as “not significantly different”. Moreover, the “type X collagen-stained chondrocytes vs OA group” value in data set [4] (OA-induced study joints, after 5 weeks of treatment) is reported as “less positive stained cells”. Further, in data set [4] (setting [6]), the “type II collagen stained area to total area (brown:total) vs contralateral control” value is given as “not significantly different from the contralateral control cartilage”.
